From PubChem BioAssay AID1259411 (Chemical Carcinogenesis Research Information System (CCRIS), 2018)
Activity calls are given as the source filed them. The rule behind the calls is not given here.

Tested on: rodent carcinogenicity bioassays, tumor incidence
Assay: CCRIS carcinogenicity studies
How it was run: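 Archive of carcinogenicity, mutagenicity, tumor promotion and tumor inhibition results drawn from journals, NCI reports and other sources, expert-reviewed; covers 1985-2011 and is no longer updated.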

O=C(O)CCCC/C=C(\c1ccccc1)c1cccnc1
carcinogen call (Species: MOUSE, Strain/Sex: CD-1/FEMALE, Route: ORAL, Dose: 0, 10, 30, 100, 300 MG/KG/D IN DIET FOR 2 YR (STUDY DURATION: 2 YR), Dose: 0, 10, 30, 100, 300 MG/KG/D IN DIET FOR 2 YR (STUDY DURATION: 2 YR)): inactive; negative | carcinogen call (Species: MOUSE, Strain/Sex: CD-1/MALE, Route: ORAL, Dose: 0, 10, 30, 100, 300 MG/KG/D IN DIET FOR 2 YR (STUDY DURATION: 2 YR), Dose: 0, 10, 30, 100, 300 MG/KG/D IN DIET FOR 2 YR (STUDY DURATION: 2 YR)): inactive; negative | carcinogen call (Species: RAT, Strain/Sex: STRAIN-CD/FEMALE, Route: ORAL, Dose: 0, 10, 30, 100 MG/KG/D IN DIET FOR 2 YR (STUDY DURATION: 2 YR), Dose: 0, 10, 30, 100 MG/KG/D IN DIET FOR 2 YR (STUDY DURATION: 2 YR)): inactive; negative | carcinogen call (Species: RAT, Strain/Sex: STRAIN-CD/MALE, Route: ORAL, Dose: 0, 10, 30, 100 MG/KG/D IN DIET FOR 2 YR (STUDY DURATION: 2 YR), Dose: 0, 10, 30, 100 MG/KG/D IN DIET FOR 2 YR (STUDY DURATION: 2 YR)): inactive; negative

CCc1ccc(C(c2ccc(CC)cc2)C(Cl)Cl)cc1
carcinogen call (Species: MOUSE, Strain/Sex: B6C3F1/FEMALE, Route: ORAL, Dose: 0, 5000 IN DIET FOR FIRST 48 WK FOLLOWED BY 1000 PPM IN DIET FOR LAST 57 WK, 10000 PPM IN DIET FOR 48 WK FOLLOWED BY 300, Dose: 0, 5000 IN DIET FOR FIRST 48 WK FOLLOWED BY 1000 PPM IN DIET FOR LAST 57 WK, 10000 PPM IN DIET FOR 48 WK FOLLOWED BY 300, Tumor Site: Type of Lesion: LIVER: HEPATOCELLULAR CARCINOMA OR ADENOMA): equivocal | carcinogen call (Species: MOUSE, Strain/Sex: B6C3F1/MALE, Route: ORAL, Dose: 0, 2,500, 5,000 PPM IN DIET FOR 105 WK (STUDY DURATION: 105 WK), Dose: 0, 2,500, 5,000 PPM IN DIET FOR 105 WK (STUDY DURATION: 105 WK)): inactive; negative | carcinogen call (Species: RAT, Strain/Sex: F344/FEMALE, Route: ORAL, Dose: 0, 3,500, 7,000 PPM IN DIET FOR 105 WK (STUDY DURATION: 105 WK), Dose: 0, 3,500, 7,000 PPM IN DIET FOR 105 WK (STUDY DURATION: 105 WK)): inactive; negative | carcinogen call (Species: RAT, Strain/Sex: F344/MALE, Route: ORAL, Dose: 0, 3,500, 7,000 PPM IN DIET FOR 105 WK (STUDY DURATION: 105 WK), Dose: 0, 3,500, 7,000 PPM IN DIET FOR 105 WK (STUDY DURATION: 105 WK)): inactive; negative

COc1c(Cl)c(Cl)c(Cl)c(Cl)c1Cl
carcinogen call (Species: MOUSE, Strain/Sex: B6C3F1/FEMALE, Route: GAVAGE, Dose: 0, 20, 40 MG/KG IN CORN OIL 5 D/WK FOR 104 WK (STUDY DURATION: 105 WK), Dose: 0, 20, 40 MG/KG IN CORN OIL 5 D/WK FOR 104 WK (STUDY DURATION: 105 WK)): inactive; negative | carcinogen call (Species: MOUSE, Strain/Sex: B6C3F1/MALE, Route: GAVAGE, Dose: 0, 20, 40 MG/KG IN CORN OIL 5 D/WK FOR 104 WK (STUDY DURATION: 105 WK), Dose: 0, 20, 40 MG/KG IN CORN OIL 5 D/WK FOR 104 WK (STUDY DURATION: 105 WK), Tumor Site: Type of Lesion: ADRENAL MEDULLA: BENIGN PHEOCHROMOCYTOMA, LIVER: HEMANGIOSARCOMA): active; positive | carcinogen call (Species: RAT, Strain/Sex: F344/FEMALE, Route: GAVAGE, Dose: 0, 20, 40 MG/KG IN CORN OIL 5 D/WK FOR 103 WK (STUDY DURATION: 104 WK), Dose: 0, 20, 40 MG/KG IN CORN OIL 5 D/WK FOR 103 WK (STUDY DURATION: 104 WK), Tumor Site: Type of Lesion: ADRENAL MEDULLA: BENIGN PHEOCHROMOCYTOMA): equivocal | carcinogen call (Species: RAT, Strain/Sex: F344/MALE, Route: GAVAGE, Dose: 0, 10, 20, 40 MG/KG IN CORN OIL 5 D/WK FOR 103 WK (STUDY DURATION: 104 WK), Dose: 0, 10, 20, 40 MG/KG IN CORN OIL 5 D/WK FOR 103 WK (STUDY DURATION: 104 WK), Tumor Site: Type of Lesion: ADRENAL MEDULLA: BENIGN PHEOCHROMOCYTOMA): active; positive

O=[N+]([O-])c1ccc2ccc3cccc4c5ccccc5c1c2c34
carcinogen call (Species: MOUSE, Strain/Sex: B6C3F1/MALE, Route: INTRAPERITONEAL, Dose: 0, 400 NMOL IN 35 µL DMSO ON DAYS 1 (1/7 TOTAL DOSE), 8 (2/7 TOTAL DOSE), AND 15 (4/7 TOTAL DOSE) AFTER BIRTH (STUDY DUR): inactive; negative

CN(C)c1ccc(N=Nc2ccccc2)cc1
carcinogen call (Species: DOG, Route: ORAL, Tumor Site: Type of Lesion: URINARY BLADDER): active; positive | carcinogen call (Species: MOUSE, Route: SUBCUTANEOUS, Tumor Site: Type of Lesion: LIVER, INJECTION SITE): active; positive | carcinogen call (Species: MOUSE, Strain/Sex: B6C3F1/FEMALE, Route: INTRAPERITONEAL, Dose: 0, 0.3 UMOL/G IN TRIOCTANOIN ONCE ON DAY 1 FOLLOWED BY 0.4 UMOL/G ONCE ON DAY 8, 15 AND 22 (STUDY DURATION: 10 MO)): inactive; negative | carcinogen call (Species: MOUSE, Strain/Sex: B6C3F1/MALE, Route: INTRAPERITONEAL, Dose: 0, 0.017, 0.05, 0.15, 0.45 UMOL/G ONCE IN TRIOCTANOIN (STUDY DURATION: 10 MO), Dose: 0, 0.017, 0.05, 0.15, 0.45 UMOL/G ONCE IN TRIOCTANOIN (STUDY DURATION: 10 MO), Tumor Site: Type of Lesion: LIVER: HEPATOMA): active; positive | carcinogen call (Species: MOUSE, Strain/Sex: B6C3F1/MALE, Route: INTRAPERITONEAL, Dose: 0, 0.3 UMOL/G IN TRIOCTANOIN ONCE ON DAY 1 FOLLOWED BY 0.4 UMOL/G ONCE ON DAY 8, 15 AND 22 (STUDY DURATION: 10 MO), Tumor Site: Type of Lesion: LIVER: HEPATOMA): active; positive | carcinogen call (Species: RAT, Route: ORAL, Tumor Site: Type of Lesion: LIVER): active; positive | carcinogen call (Species: RAT, Strain/Sex: F344/MALE, Route: INTRAPERITONEAL, Dose: 0, 0.3 UMOL/G IN TRIOCTANOIN ONCE ON DAY 1 FOLLOWED BY 0.4 UMOL/G ONCE ON DAY 8, 15 AND 22 (STUDY DURATION: 10 MO)): inactive; negative

CCNC(=S)NCC
carcinogen call (Species: MOUSE, Strain/Sex: B6C3F1/FEMALE, Route: ORAL, Dose: 0, 250, 500 PPM IN DIET, Dose: 0, 250, 500 PPM IN DIET): inactive; negative | carcinogen call (Species: MOUSE, Strain/Sex: B6C3F1/MALE, Route: ORAL, Dose: 0, 250, 500 PPM IN DIET, Dose: 0, 250, 500 PPM IN DIET): inactive; negative | carcinogen call (Species: RAT, Strain/Sex: F344/FEMALE, Route: ORAL, Dose: 0, 125, 250 PPM IN DIET, Dose: 0, 125, 250 PPM IN DIET, Tumor Site: Type of Lesion: THYROID GLAND: FOLLICULAR CELL CARCINOMA OR FOLLICULAR CELL ADENOMA): active; positive | carcinogen call (Species: RAT, Strain/Sex: F344/MALE, Route: ORAL, Dose: 0, 125, 250 PPM IN DIET, Dose: 0, 125, 250 PPM IN DIET, Tumor Site: Type of Lesion: THYROID GLAND: FOLLICULAR CELL CARCINOMA OR FOLLICULAR CELL ADENOMA): active; positive

C=C(C)C(=O)OC
carcinogen call (Species: HAMSTER, Strain/Sex: GOLDEN/FEMALE, Route: INHALATION, Dose: 0, 25, 100, 400 PPM IN AIR 6 HR/D 5 D/WK FOR 18 MO (STUDY DURATION: 78 WK), Dose: 0, 25, 100, 400 PPM IN AIR 6 HR/D 5 D/WK FOR 18 MO (STUDY DURATION: 78 WK)): inactive; negative | carcinogen call (Species: HAMSTER, Strain/Sex: GOLDEN/MALE, Route: INHALATION, Dose: 0, 25, 100, 400 PPM IN AIR 6 HR/D 5 D/WK FOR 18 MO (STUDY DURATION: 78 WK), Dose: 0, 25, 100, 400 PPM IN AIR 6 HR/D 5 D/WK FOR 18 MO (STUDY DURATION: 78 WK)): inactive; negative | carcinogen call (Species: MOUSE, Strain/Sex: B6C3F1/FEMALE, Route: INHALATION, Dose: 0, 500, 1000 PPM 6 HR/D, 5 D/WK FOR 102 WK, Dose: 0, 500, 1000 PPM 6 HR/D, 5 D/WK FOR 102 WK): inactive; negative | carcinogen call (Species: MOUSE, Strain/Sex: B6C3F1/MALE, Route: INHALATION, Dose: 0, 500, 1000 PPM 6 HR/D, 5 D/WK FOR 102 WK, Dose: 0, 500, 1000 PPM 6 HR/D, 5 D/WK FOR 102 WK): inactive; negative | carcinogen call (Species: RAT, Strain/Sex: F344/FEMALE, Route: INHALATION, Dose: 0, 25, 100, 400 PPM IN AIR 6 HR/D 5 D/WK FOR 24 MO (STUDY DURATION: 104-106 WK), Dose: 0, 25, 100, 400 PPM IN AIR 6 HR/D 5 D/WK FOR 24 MO (STUDY DURATION: 104-106 WK)): inactive; negative | carcinogen call (Species: RAT, Strain/Sex: F344/FEMALE, Route: INHALATION, Dose: 0, 250, 500 PPM 6 HR/D, 5 D/WK FOR 102 WK, Dose: 0, 250, 500 PPM 6 HR/D, 5 D/WK FOR 102 WK): inactive; negative | carcinogen call (Species: RAT, Strain/Sex: F344/MALE, Route: INHALATION, Dose: 0, 25, 100, 400 PPM IN AIR 6 HR/D 5 D/WK FOR 24 MO (STUDY DURATION: 104-106 WK), Dose: 0, 25, 100, 400 PPM IN AIR 6 HR/D 5 D/WK FOR 24 MO (STUDY DURATION: 104-106 WK)): inactive; negative | carcinogen call (Species: RAT, Strain/Sex: F344/MALE, Route: INHALATION, Dose: 0, 500, 1,000 PPM 6 HR/D, 5 D/WK FOR 102 WK, Dose: 0, 500, 1,000 PPM 6 HR/D, 5 D/WK FOR 102 WK): inactive; negative
